Active and inactive are the calls of the source. The rule behind the calls is not given here.
Columns and labels:
[1] = Inhibition of PDGF-dependent PDGFR autophosphorylation in rat A10 cells; assay type: cell-based
[2] = Inhibition of PDGF-dependent PDGFR-mediated cell proliferation in rat A10 cells; assay type: cell-based
[3] = molecular target: T1, Platelet-derived growth factor receptor beta (Homo sapiens, UniProt P09619); assay: Inhibition of recombinant cytoplasmic domain of PDGFRbeta autophosphorylation expressed in baculovirus infected Sf21 insect cells using [gamma-33P]ATP by SDS-PAGE based scintillation counting
[4] = molecular target: T1, Platelet-derived growth factor receptor beta; assay: Inhibition of recombinant cytoplasmic domain of PDGFRbeta expressed in baculovirus infected Sf21 insect cells using poly(Glu4,Tyr1) and [gamma-33P]ATP at 100 uM by SDS-PAGE based scintillation counting
[5] = molecular target: T1, Platelet-derived growth factor receptor beta; assay: Inhibition of recombinant cytoplasmic domain of PDGFRbeta expressed in baculovirus infected Sf21 insect cells using 10 fold less poly(Glu4,Tyr1) and [gamma-33P]ATP at 100 uM by SDS-PAGE based scintillation counting
[6] = molecular target: T1, Platelet-derived growth factor receptor beta; assay: Inhibition of recombinant cytoplasmic domain of PDGFRbeta expressed in baculovirus infected Sf21 insect cells assessed as tyrosine phosphorylation treated 30 hrs after infection measured after 48 hrs of post infection by Western blotting

T1 sequence (P09619 whole entry, the tested form may be a part): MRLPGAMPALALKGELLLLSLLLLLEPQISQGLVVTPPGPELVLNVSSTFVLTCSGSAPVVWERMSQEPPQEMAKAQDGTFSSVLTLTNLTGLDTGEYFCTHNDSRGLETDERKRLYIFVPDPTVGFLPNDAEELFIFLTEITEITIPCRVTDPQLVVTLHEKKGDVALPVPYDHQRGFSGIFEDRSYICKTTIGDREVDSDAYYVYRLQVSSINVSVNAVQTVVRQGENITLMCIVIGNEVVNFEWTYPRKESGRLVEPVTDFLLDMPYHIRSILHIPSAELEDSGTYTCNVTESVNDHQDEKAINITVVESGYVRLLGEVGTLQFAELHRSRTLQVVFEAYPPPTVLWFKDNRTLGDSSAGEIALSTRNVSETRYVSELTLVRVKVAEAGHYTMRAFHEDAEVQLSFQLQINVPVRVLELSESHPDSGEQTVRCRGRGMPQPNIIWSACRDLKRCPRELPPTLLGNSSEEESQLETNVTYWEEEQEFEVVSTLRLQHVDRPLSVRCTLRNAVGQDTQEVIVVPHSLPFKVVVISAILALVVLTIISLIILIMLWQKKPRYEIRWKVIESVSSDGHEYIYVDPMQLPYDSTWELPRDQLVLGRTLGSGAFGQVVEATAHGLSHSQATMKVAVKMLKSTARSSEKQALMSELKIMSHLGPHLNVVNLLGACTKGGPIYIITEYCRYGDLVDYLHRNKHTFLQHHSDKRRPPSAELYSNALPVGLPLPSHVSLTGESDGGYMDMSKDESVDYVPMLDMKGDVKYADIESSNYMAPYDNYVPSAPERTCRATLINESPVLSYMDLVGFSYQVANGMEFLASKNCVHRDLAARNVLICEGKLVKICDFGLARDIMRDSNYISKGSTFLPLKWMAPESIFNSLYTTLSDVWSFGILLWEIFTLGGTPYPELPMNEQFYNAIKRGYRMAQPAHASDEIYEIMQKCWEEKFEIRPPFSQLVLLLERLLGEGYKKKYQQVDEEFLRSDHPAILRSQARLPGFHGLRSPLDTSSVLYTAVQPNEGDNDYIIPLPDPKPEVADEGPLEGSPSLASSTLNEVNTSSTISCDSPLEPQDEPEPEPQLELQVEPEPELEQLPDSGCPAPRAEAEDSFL

IC50 [1]: 15 nM
IC50 [3]: 1800 nM
inhibition [3]: Dose-dependent effect
inhibition [4]: inactive
inhibition [5]: inactive
IC50 [6]: 2000 nM
inhibition [6]: Dose-dependent effect
Structure (SMILES): COc1ccc2[nH]c3c4[nH]c5ccc(OC)cc5c4c4c(c3c2c1)C(=O)NC4=O [GW296115X]
IC50 [2]: 10 nM

From ChEMBL document CHEMBL1955835, “Effects of the indolocarbazole 3744W on the tyrosine kinase activity of the cytoplasmic domain of the platelet-derived growth factor beta-receptor” (Cell Signal, 1999)
